The test system of experiment [1] is Propionic Acidemia (PA) primary fibroblasts Tsi 6337. Nature of the experiment: Mitochondrial respiration, XFe96 Extracellular Flux Analyzer (OCR/ECAR), PA fibroblasts Tsi 6337. The note with it: Homo sapiens, Fibroblast. Format: cell-based. The procedure: The effect of the compounds of the present disclosure on mitochondrial respiration was measured with a XFe96 Extracellular Flux Analyzer (Seahorse Bioscience, Agilent Technologies) and Oxygen consumption Rate (OCR) and Extracellular acidification rate (ECAR) determined.
Cell culture and treatments. Primary adherent fibroblasts were cultured in minimum essential medium (MEM) (Gibco, 25030081) supplemented with 2 mM L-Glutamine (Gibco, 25030081), 15% fetal bovine serum (FBS) (Gibco, 26400044) and 1% penicillin/streptomycin (Gibco, 5140122) at 37° C. and 5% CO2. Cells were collected for either passaging or experiment at ˜70-80% confluence. Cells were obtained by trypsinization and seeded at 20000 cells/well in cell culture microplates (Seahorse Bioscience, 101085-004) and allowed to adhere for 16 hours in culture media.
By profiling different primary cells and/or optimizing their culture media or environmental components one can select cell lines and/or conditions that are appropriate for the biological or disease model. In the present example, 24 hours prior to OCR and ECAR profiling, media was changed to Dulbecco's Modified Eagle Medium (DMEM, Agilent Seahorse 103575-100) with the appropriate supplements for the different primary cells (10 mM glucose, 2 mM L-glutamine, 1 mM pyruvate, 10% FBS; 1 mM glucose, 2 mM L-glutamine, 1 mM pyruvate, 10% FBS; 10 mM glucose, 10% FBS; 5 mM glucose 10% FBS; 1 mM glucose 10% FBS). Cells used in this example were: Propionic Acidemia (PA) (GM00371, GM03590 Coriell Institute for Medical Research, Tsi 6337, Tsi 4626, Tsi 3618 Trans-Hit Bio), Methylmalonic Acidemia (MMA) (GM01673, Coriell Institute for Medical Research, Tsi 5224 Trans-Hit Bio), Branched chain ketoacid dehydrogenase kinase (BCKDK) (GM00612, GM00649 Coriell Institute for Medical Research), Subnormal activation of pyruvate dehydrogenase complex (PDH) (GM01503 Coriell Institute for Medical Research), Very long-chain acyl-CoA dehydrogenase (VLCAD) (GM17475), Leigh Syndrome (LS) (GM03672, GM13411 Coriell Institute for Medical Research), Pyruvate Carboxylase Deficiency (PC) (GM00444 Coriell Institute for Medical Research), Glutaric Acidemia-I (GA) (GM10653), Friedreich's Ataxia (FXN) (GM04078 Coriell Institute for Medical Research, Huntington's disease (HD) (GM21756 Coriell Institute for Medical Research), Ornithine Transcarbamylase Deficiency (OTC) (GM12756 Coriell Institute for Medical Research), Kearns-Sayre Syndrome (KSS) (GM06225 Coriell Institute for Medical Research).
One hour before the assay, the cells were washed with freshly prepared unbuffered serum free-Seahorse XF Assay medium (Seahorse Bioscience, North America, USA, 103575-100) with the same supplements as for the previous 24 hour incubation.
After baseline measurements of OCR, cells were challenged with compounds of the present disclosure at different concentrations (10 to 50 μM) or vehicle (DMSO, 0.1%) and a post-compound baseline was recorded. OCR was measured after sequentially adding to each well 1 μg/ml oligomycin (inhibitor of ATP synthase Sigma-Aldrich, 753531), then maximal OCR was determined with carbonyl cyanide 4-(trifluoromethoxy) phenylhydrazone (FCCP, Sigma-Aldrich, C2920), (uncoupler of oxidative phosphorylation) and 0.5 μM of rotenone (Sigma-Aldrich, R8875) plus antimycin A (Sigma-Aldrich, A8674) (inhibitors of mitochondrial complex I and III) for determination of rotenone-antimycin insensitive respiration together with Hoechst for nuclear staining in situ when normalized to cell counts. After the analysis and nuclear staining, the XFp microplate was transferred to the Cytation 5, and the nuclear images were captured, the individual nuclei were identified and counted by BioTek Gen5 software. Data were expressed as pmol of O2 per minute and normalized by nuclear staining and baselined to pre-compound addition.
Assay conditions were as stated below.
Assay specifics on assay conditions are indicated below when readouts were normalized to cell counts. […]

The subject of experiment [2] is Methylmalonic Acidemia (MMA) primary fibroblasts Tsi 5224. The experiment can be described thus: Mitochondrial respiration, XFe96 Extracellular Flux Analyzer (OCR/ECAR), MMA fibroblasts Tsi 5224.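 Note: relative to vehicle DMSO control.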 The note with it: Homo sapiens, Fibroblast, read-out: Increase in Maximal Respiratory Capacity AUC. The experiment is classed as cell-based. Put shortly: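 Primary fibroblasts (20000 cells/well) were held 24 h in supplemented DMEM before Seahorse OCR/ECAR profiling. Compounds at 10 to 50 μM or 0.1% DMSO were injected after baseline, then oligomycin 1 μg/ml, FCCP, and rotenone/antimycin A 0.5 μM. Values were normalized to Hoechst nuclear counts, baselined to pre-compound, and expressed relative to vehicle.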

Experiment [3] has as its system primary fibroblasts (healthy controls and PA, MMA, BCKDK, PDH, VLCAD, LS, PC, GA, VLCFA, KSS, FXN, HD). The experiment can be described thus: Measurement of ROS (H2DCFDA) in primary fibroblasts. Format: cell-based, human. The note with it: Homo sapiens, procedure Example 812, Assay Condition C. The procedure:
Primary adherent fibroblasts were cultured in minimum essential medium (MEM) (Gibco, 25030081) supplemented with 2 mM L-Glutamine (Gibco, 25030081), 15% fetal bovine serum (FBS) (Gibco, 26400044) and 1% penicillin/streptomycin (Gibco, 5140122) at 37° C. and 5% CO2. Cells were collected for either passaging or experiment at ˜70-80% confluence. Cells were obtained by trypsinization and seeded in cell culture microplates either white plate (Thermo Fisher Scientific, 152028) for luminescent measurement or black plate (Thermo Fisher Scientific, 165305) for fluorescent based read out for different assays listed below. Cells were obtained by trypsinization and […] were seeded and allowed to adhere for 16-18 hours to have confluency around 70-80% in the cell well with culture media. After 24 hours prior to measurements (37° C., 5% CO2) media was changed to Dulbecco's Modified Eagle Medium (DMEM, Agilent Seahorse cat #103575-100) with the appropriate supplements as stated below.
Primary fibroblasts assayed were Healthy controls (GM00041, GM05659, GM23974 Coriell Institute for Medical Research), Propionic Acidemia (PA) (GM00371, GM03590 Coriell Institute for Medical Research, Tsi 6337 Trans-Hit Bio), Methylmalonic Acidemia (MMA) (GM01673, Coriell Institute for Medical Research, Tsi 5224, Tsi 4290 Trans-Hit Bio), Branched chain ketoacid dehydrogenase kinase (BCKDK) (GM00612, GM00649 Coriell Institute for Medical Research), Subnormal activation of pyruvate dehydrogenase complex (PDH) (GM01503 Coriell Institute for Medical Research), Very long-chain acyl-CoA dehydrogenase (VLCAD) (GM17475), Leigh Syndrome (LS) (GM03672, GM13411 Coriell Institute for Medical Research), Pyruvate Carboxylase Deficiency (PC) (GM00444 Coriell Institute for Medical Research), Glutaric Acidemia-I (GA), Impaired VLCFA oxidation (VLCFA) (GM13262), Kearns-Sayre Syndrome (KSS) (GM06225 Coriell Institute for Medical Research), Friedreich's Ataxia (FXN), Huntington's disease (HD) (GM21756 Coriell Institute for Medical Research). Next, cells were treated with compounds (10 μM) and ROS H2DCFDA (22 μM) dye for 2 hours in PA, MMA lines and for 24h for the other fibroblast lines. Kinetic read was started immediately with a i3x plate reader (492/527 nm) for 60 minutes.
A total dead cell count was performed as described in Example 817 and only alive cells were used for analysis.

The test system of experiment [4] is Venular Endothelial cells (HUVEC) (4H system). Nature of the experiment: BioMAP 4H system (IL-4 and histamine). Format: cell-based, human. The note with it: 1 uM; procedure of Example 826.
Experiment [5] relates to monocyte-derived M1 macrophages. The experiment can be described thus: M1 differentiation assay (macrophage TNFα, IL6, IL10 ELISA, FACS). Format: cell-based, human. The procedure: Monocytes were isolated by positive isolation with CD14+ microbeads (Miltenyi, 130-050-201). Monocytes were 99% viable and were 96% purity as analyzed by FACS and CD14+ (BD, 563561). 100,000 monocytes along with compounds at the dose of 10 and 50 μM were allowed to differentiate to macrophages with 10 ng/ml GMCSF (R&D, 15-GM-050/CF) in RPMI complete media (Invitrogen, 22400089) with 15% FBS (Hyclone SV30087.03) and 1% Penicillin-Streptomycin (Gibco, 15140-122). On day 2 and 4 half the media was refreshed with fresh GM-CSF and compounds at 10 and 50 μM dose. On day 6 the macrophages were matured with GMCSF, IFNγ (R&D 285-IF-100/CF) and LPS (Sigma, L6143) in the presence of 10 μM and 50 μM of compounds. After 24h, supernatant was collected for the measurement of TNFα (DKW, 1117202) IL6 (DKW, 1110602), IL10 (DKW, 1110003) by ELISA. Macrophages were detached gently on ice with EDTA (Invitrogen, 15575-038) and analyzed by FACS (BD LSR Fortessa, 853492). Cells were stained for live/dead dye, surface and intracellular markers with fixation/permeabilization solution (BD, 554714) and ALIVE/DEAD™ Fixable Near-IR Dead Cell Stain Kit (BD, L34976), mouse anti human CD86 APC (BD, 555660), mouse anti-human CD163 PE (BD, 556018), mouse anti-human CD68 FITC (BD, 562117) or isotype controls anti-mouse IgG1 κ PE (BD, 559320) and anti-mouse IgG1 κ APC (BD, Anti mouse IgG1 κ APC (BD, 55571). Mature M1 macrophages were defined as CD86+CD68+CD163− and increase in TNFα, IL6, and decrease in IL-10.

Where [6] appears, read: MMA Tsi 5224, assay condition A (10 mM glucose, 2 mM L-glutamine, 1 mM pyruvate, 10% FBS).
The mark [7] stands for this setting: PA Tsi 6337, assay condition D (1 mM glucose, 10% FBS), read-out: Increase in Maximal Respiratory Capacity AUC.
[8] abbreviates: PA Tsi 6337, assay condition A (10 mM glucose, 2 mM L-glutamine, 1 mM pyruvate, 10% FBS), read-out: Increase in Maximal Respiratory Capacity AUC.

Each structure is given as a SMILES string. Like-named read-outs stand apart in the source and are kept apart here.

Data on 7 compounds can be found in patent US20230107216A1, “PANTETHEINE DERIVATIVES AND USES THEREOF” (Comet Therapeutics, Inc., priority 2018, published 2023).

For `CC(C)(CO)[C@@H](O)C(=O)NCCC(=O)NCCSC(=O)[C@@H](N)CC(=O)O` [Compound 390], the activation at 10 µM was ≥ 10% in experiment [1] (PA Tsi 6337, assay condition D (1 mM glucose, 10% FBS), read-out: Increase in Spare Capacity AUC) and ≥ 10% in experiment [2] (setting [6]).

Regarding `COC(=O)C(=O)SCCNC(=O)CCNC(=O)[C@H](O)C(C)(C)COP(=O)(O)O` [Compound 60, Methyl (R)-2-((2-(3-(2-hydroxy-3,3-dimethyl-4-(phosphonooxy)butanamido)propanamido)ethyl)thio)-2-oxoacetate], the activation at 10 µM is ≥ 10% in experiment [1] (setting [7]) and ≥ 10% in experiment [2] (MMA Tsi 5224, assay condition D (1 mM glucose, 10% FBS)). The inhibition at 10 µM is ≥ 10% in experiment [3] (Fibroblast, KSS GM06225, read-out: Decreased ROS by at least 10%) and ≥ 30% in experiment [3] (Fibroblast, KSS GM06225, read-out: Decreased ROS by at least 30%).

For `CC[C@H](O)CC(=O)SCCNC(=O)CCNC(=O)[C@H](O)C(C)(C)CO` [Compound 1249, (2R)-2,4-dihydroxy-N-{2-[(2-{[(3S)-3-hydroxypentanoyl]sulfanyl}ethyl)carbamoyl]ethyl}-3,3-dimethylbutanamide], the activation at 10 µM in experiment [1] (setting [8]) was ≥ 10%. Moreover, the inhibition at 10 µM in experiment [3] (Fibroblast, VLCAD GM17475, read-out: Decreased ROS by at least 10%) is ≥ 10%; in experiment [3] (Fibroblast, VLCAD GM17475, read-out: Decreased ROS by at least 30%) it was ≥ 30%; in experiment [3] (FXN GM04078, read-out: Decreased ROS by at least 10%) it was ≥ 10%; in experiment [3] (FXN GM04078, read-out: Decreased ROS by at least 30%) it was ≥ 30%.

Take `C/C=C/C(=O)CC(=O)SCCNC(=O)CCNC(=O)[C@H](O)C(C)(C)CO` [Compound 36, (2R)-2,4-dihydroxy-3,3-dimethyl-N-[2-[(2-[[(4E)-3-oxohex-4-enoyl]sulfanyl]ethyl)carbamoyl]ethyl]butanamide]: the “% decrease in Eotaxin-3” value in experiment [4] is reported as ≥10%. Moreover, the activation at 10 µM in experiment [2] (setting [6]) was ≥ 10%.

Take `COC(=O)CC(O)(CC(=O)OC)C(=O)SCCNC(=O)CCNC(=O)[C@H](O)C(C)(C)CO` [Compound 418]: the activation at 10 µM in experiment [1] (setting [7]) is ≥ 10%; in experiment [5] (Homo sapiens, Macrophage, 10 uM, read-out: % Increase in IL-10 Secretion), ≥ 30%. Moreover, in experiment [5] (50 uM), the “% decrease in Live Macrophage Cells” value was ≥20%. Moreover, the inhibition at 10 µM in experiment [5] (Homo sapiens, Macrophage, 10 uM, read-out: % decrease in Macrophage IL-6 Secretion) is ≥ 30%; in experiment [5] (Homo sapiens, Macrophage, 10 uM, read-out: % decrease in Macrophage TNFα Secretion), ≥ 30%.

As to `CC(C(=O)SCCNC(=O)CCNC(=O)[C@H](O)C(C)(C)CO)[C@H](C)O` (stereo partly drawn) [Compound 1248, (2R)-2,4-dihydroxy-N-{2-[(2-{[(3S)-3-hydroxy-2-methylbutanoyl]sulfanyl}ethyl)carbamoyl]ethyl}-3,3-dimethylbutanamide], the activation at 10 µM in experiment [1] (setting [8]) and in experiment [2] (setting [6]) was ≥ 10% each time.

Consider `COC(=O)CCC(=O)SCCNC(=O)CCNC(=O)[C@H](O)C(C)(C)COC(=O)CN` [Compound 1228], for which the activation at 10 µM in experiment [1] (setting [8]), in experiment [1] (setting [7]) and in experiment [2] (setting [6]) was ≥ 10% in each case.
